Laboratory results taken from patent US5928860A, “Process for determining the tolerance, or toxicity of gaseous, liquid and/or viscous substances for the human or animal organism” (priority 1997, dated 1999).

Experiments:
[1] = test system: explants of neonatal rabbit kidneys; assay type: cell-based
Source text: An interactive tissue culture system was established for testing of toxicity. The culture system should provide information on whether the action of the substance perfluorophenathrene which changes the vessels can be established in vitro. Explants of neonatal rabbit kidneys were chosen as the test tissue. Antibodies for detection of vessels in the rabbit tissues are available in laboratory. In addition, the vascular system in this tissue has an extraordinarily high degree of spacial order. The preservation of the structure of the vascular system after application of the test substance was the parameter for assessment of the toxic effect in this test.
Tissue preparation: One to three day old rabbits were sacrificed by cervical dislocation. Organ explants were prepared immediately after removal of the kidneys.
The kidneys of neonatal rabbits are not yet completely developed. In the outermost region of the organ directly under the organ capsule, all nephron developments stages are found in addition to the embryonal tissue. Microsurgical organ explants were prepared from this region. To do this the kidneys were cut in half lengthwise. With fine tweezers the thin organ capsule was removed. With the organ capsule, the renal tissue still in development was detached. Proteases were not used in this preparation method, i.e. the organ-typical extracellular matrix and the intercellular connections remained intact. The organ explants were then stretched onto the retaining ring system.
Culture of the kidney explants: By using a retaining ring system it was possible to use tissue explants which had been […] for the tests. The tissue fragment was prepared in the corresponding size and fixed in the retaining ring. Proteolytic disintegration of the tissue, as can be necessary for culture in the conventional culture dish applications, was not carried out. The tissue fragment stretched onto the retaining ring was brought into contact with the tissue top or bottom with the test substance. The tissue top was defined as the side covered by the organ capsule. The tissue bottom was the tissue side exposed by the preparation. The tissue explants prepared in this way were cultivated with continuous throughflow of the medium. Use of perfusion culture technique in this case enabled complete abandonment of additives of fetal calf serum, adult serum or tissue extracts. The medium consists of a commercially available basic medium (Iscove's Modified Dulbecco's Medium, IMDM) to which the hormones aldosterone (10^-7 M) and 1.25 dihydroxyvitamin D3 (10^-9 M) have been added. In the presence of these hormones the structure of the renal tissue is completely preserved. Necroses were not observed even after culture times of more than 10 days.
For the perfusion culture, stretched explant 5 (organ samples) were inserted into the gradient chamber so that one upper and one lower compartment 6 or 7 are formed which are separated from one another by tissue 5. Upper compartment 6 was filled with the given test substance and no flow takes place through it in the experiment since the test substance was of viscous consistency. Throughflow of the test substance however would be possible in the application of liquid or gaseous substances.
Lower compartment 7 was filled with nutrient solution which was continuously pumped through the chamber compartment. Storage bottle 13 of the medium was connected via a hose connection 11 to the inlet 8 of lower chamber 7. Chamber outflow 9 was connected to the waste bottle. Storage bottle 13 was kept at 4° C. during the entire culture time. Supply hose 11 was inserted into 12 which ensured constant flushing of chamber with medium at 1 ml/h. […] Fundamentally other flow rates are possible. […]

rabbit eye [2] = test: test of vitreous body replacements in the rabbit eye (animal test)
rabbit eye [3] = conditions: in vivo

Source text for tumor cells: In this example, two of these replacements (the substances perfluorophenathrene and perfluorodecaline) were studied. The substances have been tested in a cell culture system.
Cell culture systems are outstandingly suited for detection of acute toxic effects. They allow prompt testing of the direct toxic effect. If the toxicity of a substance is however based on cellular interactions, other systems must be used for analysis.

Row | Compound | Expression of EC 1 antigen [1] | Tissue structure [1] | Vascular structure [1] | preservation of the vascular network / vascular system in renal explants [1] | tolerance in animal test (rabbit eye [2]) | toxic effects in cell culture (tumor cells) | expression of the EC 1 antigen / detection of endothelial cells [1] | damage to the retina or eye (rabbit eye [3])
1 | FC1(F)C(F)(F)C(F)(F)C2(F)C(F)(F)C(F)(F)C(F)(F)C(F)(F)C2(F)C1(F)F (stereo not shown) [Perfluorodecaline, perfluorodecaline] | + | + | + | excellent preservation of the vascular system | good tolerance | no indications of toxic effects |  | 
2 | FC1(F)C(F)(F)C(F)(F)C2(F)C(F)(C1(F)F)C(F)(F)C(F)(F)C1(F)C(F)(F)C(F)(F)C(F)(F)C(F)(F)C12F (stereo not shown) [Perfluorophenathrene, perfluorophenathrene] | + |  | - |  |  |  | expression of the EC 1 antigen was not influenced | major damage to the eye
